Measurements: article PMC12583774 (Nature Communications, 2025)

Key:
[1] = tested on: SARS-CoV-2 strain (Wuhan-Hu-1); assay: microbe, parasite or virus in culture; format: cell-based; conditions: Severe acute respiratory syndrome coronavirus 2, A549-ACE2, 24 h
[2] = tested on: SARS-CoV-2 nCoV-SH01 strain; set-up: species or system K18-hACE2 transgenic mice; conditions: mouse, in vivo

SMILES: CCC(CC)COC(=O)[C@H](C)N[P@](=O)(OC[C@H]1O[C@@](C#N)(c2ccc3c(N)ncnn23)[C@H](O)[C@@H]1O)Oc1ccccc1 [remdesivir]
- EC50 [1]: 60 nM
- SARS-CoV-2 N protein antigen staining in lungs (IHC) [2]: significantly reduced viral antigen staining
- lung pathological features (H&E) [2]: markedly alleviated
